Here are results for 7 compounds from BindingDB's records for doi:10.1021/cc9000357 (University of Alabama At Birmingham, 2009).

For assay [1], the target named is T1, NH(3)-dependent NAD(+) synthetase (Bacillus anthracis, UniProt Q81RP3).
T1 sequence (Q81RP3 whole entry): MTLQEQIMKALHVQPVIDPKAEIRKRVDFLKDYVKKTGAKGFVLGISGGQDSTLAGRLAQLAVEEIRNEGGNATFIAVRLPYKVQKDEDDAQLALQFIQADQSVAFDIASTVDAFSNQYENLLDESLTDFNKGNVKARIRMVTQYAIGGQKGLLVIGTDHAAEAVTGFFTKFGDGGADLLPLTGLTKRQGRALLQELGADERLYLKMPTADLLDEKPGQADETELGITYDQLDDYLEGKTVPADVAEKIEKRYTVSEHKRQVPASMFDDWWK
In words: NADs HPLC Enzyme Assay. The following applies: pH 8.5; 4 °C. From the text:
Inhibitory concentration of the compound measured against B. anthracis Nicotinamide adenine dinucleotide synthetase (NADs) using HPLC Enzyme Assay

Assay [2] addresses T2, Probable nicotinate-nucleotide adenylyltransferase (Bacillus anthracis (strain CDC 684 / NRRL 3495), UniProt C3L5T6).
T2 sequence (C3L5T6 whole entry): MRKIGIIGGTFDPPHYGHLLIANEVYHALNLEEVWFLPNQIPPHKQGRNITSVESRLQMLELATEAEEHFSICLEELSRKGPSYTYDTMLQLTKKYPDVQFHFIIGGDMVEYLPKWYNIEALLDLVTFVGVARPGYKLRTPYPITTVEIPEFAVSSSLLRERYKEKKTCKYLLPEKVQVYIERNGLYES
The experiment in a line: NaMNAT HPLC Enzyme Assay. The following applies: pH 7.5; 0 °C. From the text: Inhibitory concentration of the compound measured against B. anthracis Nicotinic acid mononucleotide adenylyltransferase (NaMNAT)using HPLC Enzyme Assay

Broadly, the IC50 is the point on the concentration scale where inhibition reaches its midpoint. `O=C(Nc1ccc([N+](=O)[O-])cc1)Nc1ccc(S(=O)(=O)Nc2ccc(Cl)c(Cl)c2)cc1`: the IC50 in assay [1] turned out to be 6.4 µM; in assay [2] it was 2 µM.
With `O=C(Nc1ccc(NS(=O)(=O)c2ccc(C(F)(F)F)cc2)cc1)Nc1cccc([N+](=O)[O-])c1` [1-(3-nitrophenyl)-3-[4-[[4-(trifluoromethyl)phenyl]sulfonylamino]phenyl]urea], in assay [1], half-maximal inhibition (IC50) was put at 143 µM.
`O=C(Nc1ccc(NS(=O)(=O)c2ccc(Cl)c(Cl)c2)cc1)Nc1ccccc1[N+](=O)[O-]` [1-[4-[(3,4-dichlorophenyl)sulfonylamino]phenyl]-3-(2-nitrophenyl)urea]: the values for the IC50 in assay [1] and in assay [2] were 443 µM and over 600 µM, respectively.
The matching figures for `O=C(Nc1ccc(NS(=O)(=O)c2ccc(Cl)c(Cl)c2)cc1)Nc1cccc([N+](=O)[O-])c1` [1-[4-[(3,4-dichlorophenyl)sulfonylamino]phenyl]-3-(3-nitrophenyl)urea]: 95.5 µM and 382 µM.
In the same order, the values of `O=C(Nc1ccc(NS(=O)(=O)c2ccc(Cl)c(Cl)c2)cc1)Nc1ccc([N+](=O)[O-])cc1` [1-[4-[(3,4-dichlorophenyl)sulfonylamino]phenyl]-3-(4-nitrophenyl)urea] are 32.7 µM and 7.3 µM.
In the same order, the values of `Nc1ccc(S(=O)(=O)Nc2ccc(NC(=O)Nc3ccccc3[N+](=O)[O-])cc2)cc1` [1-[4-[(4-aminophenyl)sulfonylamino]phenyl]-3-(2-nitrophenyl)urea] are 17.1 µM and over 150 µM.
As to `O=C(Nc1ccc(NS(=O)(=O)c2ccc(F)cc2)cc1)Nc1ccc([N+](=O)[O-])cc1` [1-[4-[(4-fluorophenyl)sulfonylamino]phenyl]-3-(4-nitrophenyl)urea], in assay [2], inhibition was half-maximal at 370 µM (IC50).
